Data taken from ChEMBL document CHEMBL6134767, “Advances in antibacterial agents for Mycobacterium fortuitum” (2025).
Converted amounts (≈) assume the structure as drawn.

system: Mycolicibacterium fortuitum; assay: Antimycobacterial activity against Mycobacterium fortuitum ATCC 19542 assessed as bacterial growth inhibition incubated for 72 hrs by resazurin dye based broth microdilution method; assay type: functional; conditions: not given

| Structure (SMILES) | MIC [µM] |
| --- | --- |
| CC(NC(=O)C1=CC(c2cc(Br)ccc2F)N2N=CNC2=N1)c1ccccc1 (stereo not given) | 2.26 (≈ 1 µg/mL) |
| CCN(C(=O)C1=CC(c2cc(Br)ccc2F)N2N=CNC2=N1)c1ccccc1 (stereo not given) | 2.26 (≈ 1 µg/mL) |
| C#CCNC(=O)C1=CC(c2cc(Br)ccc2F)N2N=CNC2=N1 (stereo not given) | 2.65 (≈ 0.997 µg/mL) |

system: Mycolicibacterium fortuitum; assay: Antibacterial activity against Mycobacterium fortuitum ATCC 6841 assessed as bacterial growth inhibition incubated for 4 days by CLSI protocol based broth micro-dilution method; assay type: functional; conditions: ATCC 6841, 96 h, time 4 day

| Structure (SMILES) | MIC [µM] |
| --- | --- |
| CC1(C)CCC(Cc2cc(O)c(-c3ccccc3)c(=O)[nH]2)CC1 | 0.13 (≈ 0.0405 µg/mL) |

system: Mycolicibacterium fortuitum; assay: Antibacterial activity against Mycobacterium fortuitum assessed as reduction in bacterial growth; assay type: functional; conditions: not given

| Structure (SMILES) | MIC [µM] |
| --- | --- |
| CC(C)=CCC/C(C)=C/CNCCNC1C2CC3CC(C2)CC1C3 (stereo not given) [SQ109] | 3.02 (≈ 0.998 µg/mL) |
| C[C@]12CC[C@@H]3c4ccc(OCCCCCCC[n+]5ccccc5)cc4CC[C@H]3[C@@H]1CCC2=O | 3.81 |
| CC(C)/C(=C/CN(C)C)CC[C@@H](C)[C@H]1CC[C@H]2C3=CC[C@H]4C[C@@H](N(C)C)CC[C@]4(C)[C@H]3CC[C@]12C | 67.2 (≈ 32.5 µg/mL) |

system: Mycolicibacterium fortuitum; assay: Antibacterial activity against Mycobacterium fortuitum ATCC 6841 assessed as bacterial growth inhibition incubated for 72 hrs by CLSI protocol based micro-dilution method; assay type: functional; conditions: not given

| Structure (SMILES) | MIC [µM] |
| --- | --- |
| C[C@H]1c2cccc(O)c2C(=O)C2=C(O)[C@]3(O)C(=O)C(C(N)=O)=C(O)[C@@H](N(C)C)[C@@H]3[C@@H](O)[C@@H]21 [DOXYCYCLINE ANHYDROUS] | 0.56 (≈ 0.249 µg/mL) |
| Cc1cc(NS(=O)(=O)c2ccc(N)cc2)no1 [SULFAMETHOXAZOLE] | 126 (≈ 32 µg/mL) |
| NCC[C@H](O)C(=O)N[C@@H]1C[C@H](N)[C@@H](O[C@H]2O[C@H](CN)[C@@H](O)[C@H](O)[C@H]2O)[C@H](O)[C@H]1O[C@H]1O[C@H](CO)[C@@H](O)[C@H](N)[C@H]1O [AMIKACIN] | 3.41 (≈ 2 µg/mL) |

system: Mycolicibacterium fortuitum; assay: Antimycobacterial activity against Mycobacterium fortuitum PCM 672 assessed as reduction in microbial growth incubated for 72 hrs by resazurin dye based broth microdilution method; assay type: functional; conditions: not given

| Structure (SMILES) | MIC [µM] |
| --- | --- |
| Cc1noc(N)c1C(=O)N/N=C/c1ccncc1 | 0.14 |
| COc1ccc(/C=N/NC(=O)c2c(C)noc2N)cc1 | 0.24 |
| Cc1noc(N)c1C(=O)N/N=C/c1ccc(Cl)cc1Cl | 55.3 |
| Cc1noc(N)c1C(=O)N/N=C/c1ccc([N+](=O)[O-])cc1 | 51.1 |
| Cc1noc(N)c1C(=O)N/N=C/c1ccc(C(F)(F)F)cc1 | 0.21 |
| Cc1noc(N)c1C(=O)N/N=C/c1ccc(Cl)c(Cl)c1 | 0.21 |

system: Mycolicibacterium fortuitum; assay: Antimycobacterial activity against Mycobacterium fortuitum ATCC 6841 assessed as reduction in microbial growth; assay type: functional; conditions: not given

| Structure (SMILES) | MIC [µM] |
| --- | --- |
| O=c1cc(-c2ccc(O)c(O)c2)oc2cc(O)cc(O)c12 [LUTEOLIN] | 0.12 |
| O=c1cc(-c2ccc(O)cc2)oc2c([C@@H]3O[C@H](CO)[C@@H](O)[C@H](O)[C@H]3O)c(O)cc(O)c12 | 69.4 |

system: Mycolicibacterium fortuitum; assay: Antibacterial activity against Mycobacterium fortuitum ATCC 49404 assessed as bacterial growth inhibition incubated for 72 hrs by CLSI protocol based micro-dilution method; assay type: functional; conditions: not given

| Structure (SMILES) | MIC [µM] |
| --- | --- |
| NCC[C@H](O)C(=O)N[C@@H]1C[C@H](N)[C@@H](O[C@H]2O[C@H](CN)[C@@H](O)[C@H](O)[C@H]2O)[C@H](O)[C@H]1O[C@H]1O[C@H](CO)[C@@H](O)[C@H](N)[C@H]1O [AMIKACIN] | 5.33 (≈ 3.12 µg/mL) |

system: Mycolicibacterium fortuitum; assay: Antibacterial activity against Mycobacterium fortuitum ATCC 6841 assessed as reduction in bacterial growth by micro-dilution method; assay type: functional; conditions: not given

| Structure (SMILES) | MIC [µM] |
| --- | --- |
| CC(C)c1c(O)ccc2c1CC[C@H]1C(C)(C)CCC[C@]21C [TOTAROL] | 14 (≈ 4.01 µg/mL) |
| C=C[C@@](C)(O)CC/C=C(/C)CCC=C(C)C [NEROLIDIOL] | 44.5 (≈ 9.9 µg/mL) |
| C=C1[C@@H](C)CC[C@@]2(C)[C@H]1CC=C(C=O)[C@]2(O)C=O | 64.4 (≈ 16 µg/mL) |
| C=C1[C@H]2CC[C@@H]3[C@H]2C(C)(C)CCC[C@]13C [LONGIFORENE] | > 0.63 |
| Cc1cc(O)c([C@]2(C)CC[C@@H]3C[C@@]32C)cc1Br | 42.3 (≈ 12.5 µg/mL) |
| C=C1C[C@@]23CC[C@H]4[C@@](C)(CCC[C@@]4(C)C=O)[C@@H]2CC[C@@H]1C3 | 51.6 (≈ 14.8 µg/mL) |
